The record followed here is ChEMBL document CHEMBL1158026, “New jaspamide derivatives from the marine sponge Jaspis splendans collected in Vanuatu” (J Nat Prod, 1999).

SMILES strings stand for the structures. Converted amounts (≈) assume the structure as drawn.

As a reminder, the IC50 is the concentration that gives 50% inhibition. High values mean lower potency, low ones higher potency.

The assay is described as follows: Cytotoxicity against human NSCLC-N6 cells by MTT assay. The class given is functional, cell-based. For orientation: Tetrazolium dyes change colour on reduction, which living cells bring about.

Turning to `C=C1C[C@H](C)C(=O)N[C@@H](C)C(=O)N(C)[C@H](Cc2c(Br)[nH]c3ccccc23)C(=O)N[C@@H](c2ccc(O)cc2)CC(=O)O[C@@H](C)C[C@@H](C)C1O` (stereo partly drawn) [JASPAMIDE C], half-maximal inhibition (IC50) was put at 1.1 µg/mL (≈ 1.52 µM).
Regarding `C/C1=C\[C@H](C)C[C@H](C)OC(=O)C[C@H](c2ccc(O)cc2)NC(=O)[C@@H](Cc2c(Br)[nH]c3ccccc23)N(C)C(=O)[C@H](C)NC(=O)[C@@H](C)C1` [JASPAMIDE], the 50% inhibitory concentration (IC50) is 0.36 µg/mL (≈ 0.507 µM).
Compound `C=C1C[C@H](C)C(=O)N[C@@H](C)C(=O)N(C)[C@H](Cc2c(Br)[nH]c3ccccc23)C(=O)N[C@@H](c2ccc(O)cc2)CC(=O)O[C@@H](C)C[C@@H](C)C1=O` [JASPLAKINOLIDE B] displayed an IC50 of 3.3 µg/mL (≈ 4.56 µM).
